Target: notum carboxyesterase enzyme (Homo sapiens (Human), UniProt Q6P988)
Assay: Biochemical Notum Enzymatic Activity Assay (OPTS substrate, fluorescence)
Details: 2 μM OPTS solution, 2.38 nM notum enzyme solution, 1 hour incubation at room temperature, fluorescence ex 485 nm / em 520 nm; n≥2
Text: Plate layout and measured fluorescence values were input into Dotmatics Studies data management tool.

Sequence of notum carboxyesterase enzyme (Q6P988 20-496): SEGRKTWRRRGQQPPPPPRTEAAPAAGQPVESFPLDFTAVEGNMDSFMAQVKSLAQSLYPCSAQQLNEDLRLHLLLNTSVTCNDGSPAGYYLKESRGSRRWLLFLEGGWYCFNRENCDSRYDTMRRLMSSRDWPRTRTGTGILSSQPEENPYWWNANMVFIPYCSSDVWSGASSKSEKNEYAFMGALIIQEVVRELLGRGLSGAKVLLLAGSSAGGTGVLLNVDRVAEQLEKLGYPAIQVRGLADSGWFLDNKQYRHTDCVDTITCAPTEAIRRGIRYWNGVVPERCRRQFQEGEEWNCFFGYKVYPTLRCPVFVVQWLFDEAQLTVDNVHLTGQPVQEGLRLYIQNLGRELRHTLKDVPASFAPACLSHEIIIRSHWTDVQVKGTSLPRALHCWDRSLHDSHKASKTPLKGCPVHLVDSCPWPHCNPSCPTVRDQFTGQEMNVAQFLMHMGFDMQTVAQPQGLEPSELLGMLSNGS

| Compound | IC50 |
| --- | --- |
| FC(F)(F)c1c(Cl)ccc(-n2cnnc2)c1Cl [Compound 300, 4-(2,4-dichloro-3-(trifluoromethyl)phenyl)-4H-1,2,4-triazole] | 1310 nM |
| OCc1cn(Cc2ccc(Cl)cc2)nn1 [Compound 162, (1-(4-chlorobenzyl)-1H-1,2,3-triazol-4-yl)methanol] | 68500 nM |
| CC(O)Cc1cn(-c2ccc(Cl)c(C(F)(F)F)c2Cl)nn1 (stereo not shown) [Compound 305, 1-[1-[2,4-dichloro-3-(trifluoromethyl)phenyl]triazol-4-yl]propan-2-ol] | 1320 nM |
| Clc1ccc(-c2ccno2)cc1 [Compound 150, 5-(4-chlorophenyl)isoxazole] | 1100 nM |

Reference: patent US11634391B2, “Compounds which are inhibitors of Notum” (UCL BUSINESS LTD, priority 2018, dated 2023)
